Data taken from article PMC11895359 (Alzheimer's Research & Therapy, 2025).
Where “and” joins values, the source holds several entries; their conditions need not be identical. Equal values may be shown once. Read-outs that look alike come from different tables or passages of the source. Blank lines part the entries; values can stand above or below the compound they belong to.

What was measured:
[1] = LC/MS measurement of CSF nicotinamide and metabolites in NEAT trial participants; settings: for Kp at 12 months / concentration at 12 months: 1500 mg; for Kp at 12 months: CSF methyl-nicotinamide as percent of plasma methyl-nicotinamide
Method: CSF samples were collected at 0 and 12 months.
The injection volume was 10 μL in triplicate.
(§1) We also measured the within-participant association between analytes. […] All bar graphs show mean and standard errors.

[2] = in vivo
Text: (§2) The NEAT trial participants were recruited at UCLA and UC Irvine and were required to meet eligibility criteria that included clinical criteria for mild cognitive impairment or mild dementia due to AD, confirmed by a CSF biomarker (CSF amyloid beta 42 (Aβ42) ≤ 200 pg/mL or a ratio of total tau to Aβ42 ≥ 0.39) [9]. […] Blood was collected from all participants at 0, 6, and 12 months after overnight fasting and plasma rapidly obtained. CSF samples were collected at 0 and 12 months. Plasma and CSF samples were stored at −80 °C until further processing. All samples were included in analysis, with an interval from last dose of drug or placebo ranging from 6 to 432 h.
(§3) Each calibration dilution contained IS at a constant concentration of 1 μM. IS was also added to each patient sample to a final concentration of 0.5 μM. All solutions and QC samples were stored at −20 °C. The lower limit of quantification for each analyte was determined by finding the lowest calibration curve concentration that could both be distinguished with 95% confidence from blank readings and have a signal-to-noise ratio greater than 8 to 1 [10].
(§4) Protein was precipitated by adding 160 μL of −20 °C 99.7% acetonitrile-0.3% formic acid to the IS-sample mix. Samples were centrifuged for 20 min at 4 °C at 17,000 g. 40 μL of the supernatant was then diluted fivefold with 200 μL of 0.3% formic acid in an autosampler well plate (Waters186002643). All plasma and CSF analytes were determined simultaneously for groups of 4–20 participants from the 46 participants without knowledge of their treatment assignment.
(§5) Samples were analyzed on a Waters Acquity UPLC Quattro Premier mass spectrometer in triple quadrupole electrospray positive (ESI +) mode with an Acquity CSH™ Fluoro-Phenyl (2.1 × 50 mm, 1.7 μm) column. For liquid chromatography separation, we modified the method of Chu et al. (2021). We used 0.3% formic acid in water as the mobile A phase, and 99.7% acetonitrile/0.3% formic acid as the mobile B phase. The injection volume was 10 μL in triplicate. The sample elution gradient was programmed as 0 – 0.5 min. in 100% A; 0.5–2.5 min, linear to 95% B; re-equilibrated from 2.5–4.5 min. in 100% A. The flow rate was 0.3 mL/min, and column temperature was 50 °C.
(§6) Microsoft Excel (Version 16.82, Microsoft, Redmond, WA, USA) was used for data management and statistical analysis. Treatment allocation was unblinded after all sample analyte levels were completed by mass spectrometry. We compared the randomized placebo and treatment groups for main analyte effects by two-tailed unpaired Student’s T Tests, with significance at p < 0.05, without adjustment for multiple comparisons in this exploratory analysis. […] We also measured the within-participant association between analytes. […] All bar graphs show mean and standard errors.

[3] = tested on: pTau181; test: Change in CSF pTau181 in NEAT trial participants; assay type: in vivo, human; settings: CSF nicotinamide elevated, n = 6, 12 months, mean ± S.E.
Text: as §1

[4] = tested on: total tau/ Aβ42; test: Change in CSF total tau/Aβ42 ratio in NEAT trial participants; assay type: in vivo, human; settings: mean ± S.E.
Text: as §1

[5] = LC/MS measurement of plasma nicotinamide and metabolites in NEAT trial participants; settings: for concentration at 0 months: Plasma analyte concentration, this work baseline; for Plasma measure: obtained simultaneously with nicotinamide by LC/MS
Text: as §2, §3, §4, §5, §6

[6] = tested on: CSF pTau231; test: Change in CSF pTau231 in NEAT trial participants; assay type: in vivo, human; parameters: PTAU231 Month 12, individual participant / PTAU231 change, individual participant: unit not given here
Text: as §1

[7] = tested on: Aβ42/40; test: Change in CSF Aβ42/40 ratio in NEAT trial participants; assay type: in vivo, human; settings: mean ± S.E.
Text: as §1

[8] = tested on: mouse models of Alzheimer’s disease; settings: mouse models of AD; cited from earlier work
[9] = cited from earlier work
[10] = tested on: Aβ40; test: Change in CSF Aβ40 in NEAT trial participants; assay type: in vivo, human; settings: mean ± S.E.
Text: as §1

[11] = phase 2a trial, high-dose oral nicotinamide, early AD; cited from earlier work
[12] = tested on: Aβ42; test: Change in CSF Aβ42 in NEAT trial participants; assay type: in vivo, human; settings: mean ± S.E.
Text: as §1

[13] = tested on: total tau; test: Change in CSF total tau in NEAT trial participants; assay type: in vivo, human; settings: mean ± S.E.
Text: as §1

[14] = parameters: method as in Galla et al. 16; settings: ref Galla et al. 16, cited from earlier work
[15] = tested on: Sirt1; settings: cited from earlier work
[16] = tested on: muscle regeneration; settings: aged mouse models; cited from earlier work
[17] = tested on: nicotinamide N-methyl transferase; settings: cited from earlier work
[18] = molecular target: nicotinamide N-methyl transferase; settings: competes with nicotinamide; cited from earlier work
[19] = CSF nicotinamide elevated, n = 6, 12 months
[20] = n = 10, ± S.D., ref Clement et al. 14
[21] = n = 100, ± S.D., ref Seyedsadjadi et al. 15
[22] = n = 659, ± S.D., ref Chu et al. 12
[23] = TX 1500mg, values below limit of quantification set to 0.1 uM, listed as 1-Methynicotinamide
[24] = obtained simultaneously with nicotinamide by LC/MS

Compound: C[n+]1cccc(C(N)=O)c1 [methyl-nicotinamide, 1-methyl-nicotinamide]
Percent of treated participants with CSF methyl-nicotinamide seen ([1]; 12 months, n = 9 of 19): 47% | Ratio of elevated plasma methyl-nicotinamide to CSF methyl-nicotinamide ([1]; 125/3.4, 12 months): 37 | CSF 1-Methynicotinamide, Month 12, individual participant [1, 23]: 0.1 µM and 5.9 µM and 6.5 µM and 4.1 µM and 5.6 µM and 5.7 µM and 1.4 µM and 1.3 µM and 6.4 µM and 7.5 µM and 9.2 µM and 3.6 µM | CSF methyl-nicotinamide as percent of CSF nicotinamide ([1]; drug elevated subgroup, 3.4/57): 6% | Kp at 12 months ([1]; human, in vivo, drug elevated subgroup, 3.4 vs 125 μM): 0.03 | Kp at 12 months ([1]; human, in vivo, drug unelevated subgroup, 2.4 vs plasma 37 μM): 0.06 | concentration at 12 months ([1]; human, in vivo, CSF methyl-nicotinamide range in participants with elevated level, nicotinamide treated, 12 months): 3 to 10 µM | concentration at 12 months ([1]; human, in vivo, Mean CSF methyl-nicotinamide, CSF nicotinamide elevated subgroup, treated, 6 of 19 participants, 12 months): 3.4 µM | concentration at 12 months ([1]; human, in vivo, Mean CSF methyl-nicotinamide, CSF nicotinamide unelevated subgroup, treated, 12 months): 2.4 µM | concentration at 12 months ([1]; human, in vivo, Mean CSF methyl-nicotinamide, all nicotinamide-treated participants, 12 months): 3.1 µM | concentration at 0 months ([1]; human, in vivo, CSF analyte concentration, this work baseline, baseline before treatment, n = 47): ≤ 0.1 µM | Fold increase of mean CSF methyl-nicotinamide ([1]; treated, 12 months, vs 0.1 μM limit of quantification): at least 31 fold | CSF analyte concentration ([14]; n = 10, ± S.D.): 0.039 ± 0.025 µM | CSF methyl-nicotinamide ([14]; participants without AD): around 39 nM | Fold increase of plasma methyl-nicotinamide above baseline in 6 of 7 nicotinamide unelevated participants ([5]; 12 months): at least 127 fold | Plasma methyl-nicotinamide relative to mean plasma nicotinamide, drug elevated subgroup ([5]; 12 months, 125/86): 1.5 fold | Fold increase of plasma methyl-nicotinamide above baseline and placebo, drug elevated subgroup ([5]; 12 months, 125/<0.1): ≥ 1250 fold | Plasma 1-Methynicotinamide, Month 6, individual participant [5, 23]: 72.2 µM and 6.7 µM and 98.7 µM and 8.5 µM and 73.1 µM and 120.1 µM and 30.7 µM and 77.4 µM and 114.1 µM and 160.6 µM and 61.9 µM and 130.4 µM and 151.9 µM and 186.7 µM and 248.2 µM and 186.6 µM and 191.6 µM and 68.1 µM and 186.9 µM | Plasma 1-Methynicotinamide, Month 12, individual participant [5, 23]: 101.4 µM and 6.8 µM and 0.5 µM and 93.1 µM and 19.8 µM and 119.3 µM and 87.2 µM and 118.8 µM and 0.1 µM and 127.8 µM and 33.8 µM and 71.4 µM and 101.3 µM and 15.3 µM and 73.9 µM and 116.0 µM and 293.9 µM and 219.6 µM and 242.1 µM and 152.9 µM and 1.2 µM and 76.9 µM and 15.0 µM | Plasma analyte concentration, this work baseline ([5]; baseline before treatment, n = 47, ± S.D.): 0.14 ± 0.03 µM | concentration at 12 months ([5]; human, in vivo, 1500 mg BID, Mean plasma methyl-nicotinamide in 6 of 7 treated participants without measurable plasma nicotinamide, 12 months): 12.7 µM | concentration at 12 months ([5]; human, in vivo, 1500 mg, Mean plasma methyl-nicotinamide, plasma nicotinamide elevated subgroup, treated, 12 months): 125 µM | concentration at 12 months ([5]; human, in vivo, 1500 mg, Mean plasma methyl-nicotinamide, plasma nicotinamide unelevated subgroup, treated, 9 participants, 12 months): 37 µM | concentration at 12 months ([5]; human, in vivo, 1500 mg, Plasma methyl-nicotinamide range in participants with elevated level, nicotinamide treated, 12 months): 6 to 294 µM | concentration at 0 months ([5]; human, in vivo, baseline before treatment, n = 47, ± S.D.): 0.14 µM | concentration at 6 months ([5]; human, in vivo, po, 1500 mg, Mean plasma methyl-nicotinamide, nicotinamide-treated participants, 1500 mg PO BID): 114 µM | concentration at 12 months ([5]; human, in vivo, po, 1500 mg, Mean plasma methyl-nicotinamide, nicotinamide-treated participants, 1500 mg PO BID, 12 months): 91 µM | Fold increase of mean plasma methyl-nicotinamide ([5]; treated, 6 and 12 months): > 600 fold | Sirt1 binding and stabilization [15]: binds to and stabilizes Sirt1 | Plasma analyte concentration [9, 20]: 0.05 ± 0.01 µM | Plasma analyte concentration ([9]; n = 10, ± S.D., ref Galla et al. 16): 0.185 ± 0.116 µM | Plasma analyte concentration [9, 21]: 0.033 ± 0.012 µM | Plasma analyte concentration [9, 22]: 0.1 ± 0.002 µM

Compound: NC(=O)c1ccc[n+]([C@@H]2O[C@H](COP(=O)([O-])OP(=O)(O)OC[C@H]3O[C@@H](n4cnc5c(N)ncnc54)[C@H](O)[C@@H]3O)[C@@H](O)[C@H]2O)c1 [NAD^+, Nicotinamide Adenine Dinucleotide]
CSF measure [1, 24]: below our limits of detection | concentration at 0 months ([5]; human, plasma, baseline before treatment, n = 47, ± S.D.): < 1.2 µM | Plasma measure [5]: below our limits of detection | Plasma NAD+ (not measurable above) ([5]; this work): < 1.2 nM | Plasma analyte concentration [9, 20]: 0.008 ± 0.02 µM | Plasma analyte concentration [9, 21]: 0.023 ± 0.012 µM

Compound: C[n+]1cccc2c(N)cccc21 [5-amino-1-methylquinoline]
Muscle regeneration [16]: improve muscle regeneration

Compound: COc1ccc(C(N)=O)cn1 [JBSNF-000088, 6-methyloxy-nicotinamide]
Reduction of methyl-nicotinamide in mouse plasma [17]: 50% | Effect on body weight ([17]; mouse): reduced body weight | IC50 [18]: 1.8 µM

Now from value to compound, other results behind:

CSF measure ([1]; in vivo): below our limits of detection | Plasma measure [2]: below our limits of detection
Compound: NC(=O)c1ccc[n+]([C@@H]2O[C@H](COP(=O)([O-])O)[C@@H](O)[C@H]2O)c1 [nicotinamide mononucleotide]

Percent of treated participants with elevated plasma nicotinamide ([5]; 12 months, n = 14 of 23): 61% | concentration at 12 months ([5]; human, plasma, oral, 1500 mg, Mean plasma nicotinamide, drug elevated subgroup, treated, plasma nicotinamide > […], 12 months): 86 µM | concentration at 12 months ([5]; human, plasma, oral, 1500 mg, Mean plasma nicotinamide, drug unelevated subgroup, treated, plasma nicotinamide ≤ […], 12 months): 0.7 µM | concentration at 27 h ([5]; human, plasma, oral, 1500 mg, Plasma nicotinamide, one participant, treated, sample 27 h after last dose): 2 µM | concentration at 6 months ([5]; human, plasma, po, 1500 mg, Mean plasma nicotinamide, nicotinamide-treated participants, 1500 mg PO BID): 73 µM | concentration at 12 months ([5]; human, plasma, po, 1500 mg, Mean plasma nicotinamide, nicotinamide-treated participants, 1500 mg PO BID, 12 months): 52 µM
Compound: NC(=O)c1cccnc1 [Nicotinamide]
Change in pTau181 [3]: 1.1 ± 14 pg/mL | Change in total tau/ Aβ42 [4, 19]: 35 ± 15% | Change in total tau/ Aβ42 ([4]; all treated, n = 19, 12 months): 41 ± 7% | PTAU231 Month 12, individual participant ([6]; TX 1500mg): 34.3 and 98.8 and 66 and 31.3 and 12.2 and 14.6 and 15.1 and 68.8 and 21.2 and 10.9 and 29 and 49.5 and 6.6 and 52.5 and 20.1 and 65.3 and 41 and 6.2 and 37 | PTAU231 change, individual participant ([6]; TX 1500mg, Month 12 minus baseline): -12 and 24 and -20 and -24.5 and -2.9 and -10.4 and -17.7 and 29.5 and -11.6 and 3.1 and 7.6 and 1.5 and -0.3 and -15 and -25.2 and -8.5 and -1.5 and -5.3 | PTAU231 % change, individual participant ([6]; TX 1500mg, Month 12 vs baseline): -26% and 32% and -23% and -44% and -19% and -42% and -54% and 75% and -35% and 40% and 36% and 3% and -4% and -22% and -1% and -28% and -17% and -13% | Percent Change in pTau231 ([6]; all treated participants, 12 months): -9% | Decrease of pTau231 from baseline ([6]; six treated participants with elevated CSF nicotinamide, 12 months): 34% | Percent Change in pTau231 ([6]; treated, CSF nicotinamide elevated (six participants), 12 months): -34% | Increase of pTau231 from baseline ([6]; treated, CSF nicotinamide unelevated group, 12 months): 3% | Percent Change in pTau231 ([6]; treated, CSF nicotinamide unelevated, 12 months): 3% | Percent Change in pTau231 ([6]; treated, plasma nicotinamide elevated, 12 months): -4% | Percent Change in pTau231 ([6]; treated, plasma nicotinamide unelevated, 12 months): -15% | Change in Aβ42/40 [7, 19]: −2.1 ± 4% | Change in Aβ42/40 ([7]; all treated, n = 19, 12 months): −3.7 ± 1.7% | Cognitive function [8]: improved cognitive function | Plasma analyte concentration [9, 20]: 38 ± 11 µM | Plasma analyte concentration ([9]; n = 54, ± S.D., ref Ibrahim et al. 13): 1.2 ± 0.14 µM | Plasma analyte concentration [9, 21]: 32 ± 11 µM | Plasma analyte concentration [9, 22]: 0.9 ± 0.02 µM | Change in Aβ40 [10, 19]: -1823 ± 1094 pg/mL | Change in Aβ40 ([10]; all treated, n = 19, 12 months): -2307 ± 593 pg/mL | Safety and tolerability [11]: good safety and tolerability | Change in Aβ42 [12, 19]: -75 ± 44 pg/mL | Change in Aβ42 ([12]; all treated, n = 19, 12 months): -127 ± 38 pg/mL | Change in total tau [13, 19]: -35 ± 84 pg/mL | Change in total tau ([13]; all treated, n = 19, 12 months): -8.6 ± 54 pg/mL

CSF measure [1, 24]: below our limits of detection | Plasma measure [5]: below our limits of detection
Compound: O=C(O)c1cccnc1 [nicotinic acid]
